Measured values reported in ChEMBL document CHEMBL1152840, “Antileukotrienic phenethylamido derivatives of arylalkanoic acids in the treatment of ulcerative colitis” (Eur J Med Chem, 2009).

What was measured:
Mus musculus [1] = experiment: Antiinflammatory activity in mouse assessed as inhibition of arachidonic acid-induced ear lobe edema at 200 mg/kg, po administered 1 hr before arachidonic acid challenge measured after 1 hr relative to untreated control; assay type: functional
Mus musculus [2] = experiment: Antiinflammatory activity against dextrane disodium sulfate-induced ulcerative colitis in BALB/c mouse assessed as diseased animal with rectal prolapse at 250 mg/kg administered 1 hr before dextrane disodium sulfate challenge; assay type: functional
[3] = Antileukotrienic activity in rat PMNC assessed as inhibition of Ca2+ ionophore A23187-induced LTB4 production by RIA; assay type: functional
[4] = Lipophilicity, log K by HPLC method; assay type: physicochemical
Mus musculus [5] = experiment: Antiinflammatory activity against dextrane disodium sulfate-induced ulcerative colitis in BALB/c mouse assessed as diseased animal with stool consistency at 250 mg/kg administered 1 hr before dextrane disodium sulfate challenge; assay type: functional
Mus musculus [6] = experiment: Antiinflammatory activity against dextrane disodium sulfate-induced ulcerative colitis in BALB/c mouse assessed as length of colon at 250 mg/kg administered 1 hr before dextrane disodium sulfate challenge; assay type: functional
Mus musculus [7] = experiment: Antiinflammatory activity against dextrane disodium sulfate-induced ulcerative colitis in BALB/c mouse assessed as diseased animal with large intestine bleeding at 250 mg/kg administered 1 hr before dextrane disodium sulfate challenge; assay type: functional
Mus musculus [8] = experiment: Antiinflammatory activity in mouse assessed as inhibition of arachidonic acid-induced ear lobe hyperemia at 200 mg/kg, po administered 1 hr before arachidonic acid challenge measured after 1 hr relative to untreated control; assay type: functional
Mus musculus [9] = experiment: Antiinflammatory activity against dextrane disodium sulfate-induced ulcerative colitis in BALB/c mouse assessed as diseased animal with small intestine bleeding at 250 mg/kg administered 1 hr before dextrane disodium sulfate challenge; assay type: functional
Rattus norvegicus = experiment: Antiinflammatory activity in rat assessed as inhibition of carrageenan-induced edema at 100 mg/kg relative to untreated control; assay type: functional

| Compound | IC50 [3] | log K [4] | inhibition in vivo at 200 mg/kg (Mus musculus [1]) | Activity (Mus musculus [2]) | Activity (Mus musculus [5]) | Activity (Mus musculus [6]) | Activity (Mus musculus [7]) | inhibition in vivo at 200 mg/kg (Mus musculus [8]) | Activity (Mus musculus [9]) | inhibition in vivo at 100 mg/kg (Rattus norvegicus) |
| --- | --- | --- | --- | --- | --- | --- | --- | --- | --- | --- |
| CN(CCc1ccccc1)C(=O)Cc1ccc(OCCOc2ccc(C(=O)CCC(=O)O)cc2)cc1 | 20 µM | -0.089 | 16% | 0% | 0% | 9.2 cm | 20% | 3.6% | 0% | 38% |
| CN(CCc1ccccc1)C(=O)Cc1ccc(OCCOc2ccc(/C=C/C(=O)O)cc2)cc1 | 47 µM | 0.081 | 9.4% | – | – | – | – | 3.4% | – | 43% |
| COc1cc(/C=C/C(=O)O)ccc1OCCOc1ccc(CC(=O)N(C)CCc2ccccc2)cc1 | – | -0.061 | 23% | 0% | 40% | 7.2 cm | 40% | 0% | 0% | 10% |
| CN(CCc1ccccc1)C(=O)Cc1ccc(OCCCOc2ccc(/C=C/C(=O)O)cc2)cc1 | 8.5 µM | 0.336 | 21% | – | – | – | – | 3.7% | – | 13% |
| COc1cc(/C=C/C(=O)O)ccc1OCCCOc1ccc(CC(=O)N(C)CCc2ccccc2)cc1 | – | 0.166 | 16% | – | – | – | – | 7.1% | – | 20% |
| COc1cc(/C=C/C(=O)O)ccc1OCCCCOc1ccc(CC(=O)N(C)CCc2ccccc2)cc1 | 13 µM | 0.274 | 23% | 0% | 80% | 6.8 cm | 100% | 0% | 0% | 5.5% |
| CC(C(=O)O)c1cccc2ccc(OCCCCOc3ccc(CC(=O)NCCc4ccccc4)cc3)cc12 (stereo not given) | 5.6 µM | 0.755 | 26% | 0% | 20% | 7.5 cm | 80% | 3.3% | 0% | 22% |
| CC(C(=O)O)c1ccc(OCCCOc2ccc(CC(=O)N(C)CCc3ccccc3)cc2)c(Cl)c1 (stereo not given) | 9.1 µM | 0.432 | – | – | – | – | – | – | – | – |
| CC(C(=O)O)c1ccc(OCCCCOc2ccc(CC(=O)N(C)CCc3ccccc3)cc2)c(Cl)c1 (stereo not given) | 5.6 µM | 0.554 | 37% | 0% | 0% | 7.9 cm | 60% | 0% | 0% | 44% |
| CC(C(=O)O)c1cccc2ccc(OCCCOc3ccc(CC(=O)NCCc4ccccc4)cc3)cc12 (stereo not given) | 5.7 µM | 0.617 | 12% | – | – | – | – | 0% | – | 30% |
| COc1cc(CCC(=O)O)ccc1OCCCOc1ccc(CC(=O)N(C)CCc2ccccc2)cc1 | – | 0.175 | 12% | – | – | – | – | 7.4% | – | 26% |
| COc1cc(CCC(=O)O)ccc1OCCCCOc1ccc(CC(=O)N(C)CCc2ccccc2)cc1 | 8.1 µM | 0.267 | 20% | 0% | 60% | 7 cm | 100% | 11% | 0% | 27% |
| CN(CCc1ccccc1)C(=O)Cc1ccc(OCCCCOc2ccc(/C=C/C(=O)O)cc2)cc1 | 8.7 µM | 0.462 | 22% | – | – | – | – | 6.7% | – | 20% |
| O=C(O)c1cc(/N=N/c2ccc(S(=O)(=O)Nc3ccccn3)cc2)ccc1O [SULFASALAZINE] | – | – | – | 0% | 53% | 9.1 cm | 80% | – | 0% | – |

Second part, led by results:

| IC50 [3] | log K [4] | Compound | inhibition in vivo at 200 mg/kg (Mus musculus [1]) | Activity (Mus musculus [2]) | Activity (Mus musculus [5]) | Activity (Mus musculus [6]) | Activity (Mus musculus [7]) | inhibition in vivo at 200 mg/kg (Mus musculus [8]) | Activity (Mus musculus [9]) | inhibition in vivo at 100 mg/kg (Rattus norvegicus) |
| --- | --- | --- | --- | --- | --- | --- | --- | --- | --- | --- |
| 7.5 µM | 0.636 | CC(CCc1ccc(OCCCOc2ccc(CC(=O)N(C)CCc3ccccc3)cc2)cc1)C(=O)O (stereo not given) | 16% | 0% | 100% | 7.2 cm | 60% | 3.7% | 0% | – |
| 10 µM | 0.752 | CC(CCc1ccc(OCCCCOc2ccc(CC(=O)N(C)CCc3ccccc3)cc2)cc1)C(=O)O (stereo not given) | 22% | 0% | 0% | 9.3 cm | 60% | 3.7% | 0% | 56% |
| 9.5 µM | 0.231 | CN(CCc1ccccc1)C(=O)Cc1ccc(OCCOc2ccc(CCCC(=O)O)cc2)cc1 | 12% | 0% | 80% | 7.1 cm | 100% | 3.6% | 0% | 36% |
| 12 µM | 0.451 | CN(CCc1ccccc1)C(=O)Cc1ccc(OCCCOc2ccc(CCCC(=O)O)cc2)cc1 | 13% | – | – | – | – | 3.4% | – | 30% |
| 16 µM | 0.6 | CN(CCc1ccccc1)C(=O)Cc1ccc(OCCCCOc2ccc(CCCC(=O)O)cc2)cc1 | 22% | 0% | 60% | 7.2 cm | 100% | 3.7% | 0% | 38% |
| 19 µM | 0.38 | CC(CCc1ccc(OCCOc2ccc(CC(=O)N(C)CCc3ccccc3)cc2)cc1)C(=O)O (stereo not given) | 14% | – | – | – | – | 3.7% | – | 14% |
| 11 µM | 0.324 | CN(CCc1ccccc1)C(=O)Cc1ccc(OCCCOc2ccc(CCC(=O)O)cc2)cc1 | 23% | 0% | 80% | 6.8 cm | 100% | 3.7% | 0% | 61% |
| 100 µM | 0.344 | CC(C(=O)O)c1ccc(OCCCOc2ccc(CC(=O)N(C)CCc3ccccc3)cc2)cc1 (stereo not given) | 19% | – | – | – | – | 3.7% | – | 9.2% |
| 8.2 µM | 0.502 | CC(Cc1ccc(OCCCOc2ccc(CC(=O)N(C)CCc3ccccc3)cc2)cc1)C(=O)O (stereo not given) | – | – | – | – | – | – | – | – |
| 10 µM | 0.604 | CC(Cc1ccc(OCCCCOc2ccc(CC(=O)N(C)CCc3ccccc3)cc2)cc1)C(=O)O (stereo not given) | 10% | – | – | – | – | 7.4% | – | 37% |
| 10 µM | 0.451 | CN(CCc1ccccc1)C(=O)Cc1ccc(OCCCCOc2ccc(CCC(=O)O)cc2)cc1 | 13% | – | – | – | – | 3.4% | – | 30% |
| 31 µM | 0.458 | CC(C(=O)O)c1ccc(OCCCCOc2ccc(CC(=O)N(C)CCc3ccccc3)cc2)cc1 (stereo not given) | 19% | 0% | 100% | 7.2 cm | 100% | 0% | 20% | 63% |
